# Experimental data: US20180200259A1 (priority 2015, published 2018)
# Counter-ions that a name gives are not always drawn. Like-named read-outs stand apart in the source and are kept apart here.
# Tests used:
# [1] = tested on: Rat cortical neurons; assay: Neurite assessment: Aβ1-42 oligomer injury of cortical neurons (MAP-2); type: cell-based; conditions: 1 μM; Aβ oligomer 20 μM, 24 h
# Procedure: Rat cortical neurons were cultured as described by Callizot et al (J Neurosci Res 2013; 91:706-716). On day II of culture, Aβ oligomer solution, 20 μM, was applied. The Aβ oligomer preparation, having an average weight of 90 kDa, prepared as described by Callizot et al (op cit) contained only diffusible species, not fibrils or protofibrils. Briefly, Aβ1-42 peptide at a concentration of 40 μM was dissolved in the culture medium, gently agitated for 3 days at 37° C. in the dark, and used immediately after dilution. Test compound and BDNF (50 ng/ml) were dissolved in culture medium (maximum of 0.1% DMSO final concentration) then pre-incubated with primary cortical neurons for 24 h before the Aβ1-42 oligomer solution application
# The oligomers were incubated with the neurons and various concentrations of test compound or BDNF, 50 ng/ml, the positive control, for 24 hours, in 6 replicates per condition. Then the supernatant was removed and the neurons were fixed with a cold ethanol and acetic acid solution. The cells were permeabilized with 0.4% saponin and then incubated for 2 h with mouse monoclonal antibody […] microtubule-associated protein 2 (MAP-2). Subsequently, Alexa-Fluor 488 goat anti-mouse IgG was applied, and images were obtained and analyzed automatically.
# [2] = tested on: Bv-2 microglial cells; assay: Aβ oligomer clearance measurement in Bv-2 microglial cell cultures; type: cell-based; conditions: 0.33 μM galantamine; 24 h before oligomerized Aβ1-42 (10 μM) for 6 h
# Procedure: Aβ oligomers were prepared using beta-amyloid (1-42) from American Peptide (Product #62-0-80). One aliquot was dissolved in an adequate volume of TBS (50 mM Tris-Buffer, 150 mM NaCl, pH-7.4) to achieve a final concentration of 1.7 mg/ml (corresponding to 340 μM). The solution was sonicated for 2 minutes and then diluted 1:2 in water to obtain a final concentration of 170 μM. Next, the Aβ was allowed to aggregate at 4° C. for 48 hours. Prior to application, the solution was sonicated for another minute.
# Bv-2 microglial cells were kept in culture medium (DMEM medium, 10% FBS, 2 mM glutamine, 1% Penc/Strep) until 80-90% confluency. Cells were maintained at 37° C., 95% humidity and 5% CO2. Afterwards, cells were seeded in culture medium on 24-well plates at a cell density of 1×10^5 cells per well. After 24 h, the medium was exchanged for the treatment medium (DMEM medium, 5% FBS, 2 mM glutamine). […] The medium was separated by affinity (removing monomers) and the oligomers not phagocytosed were disaggregated by hexafluoroisopropanol (HFIP) treatment and measured by MSD. […]
# The immune assay was carried out according to the Mesoscale Discovery manual and plates were read on the Sector Imager (MSD). Analyte levels were evaluated according to adequate Aβ peptide standards (MSD). […] Data are presented as mean ±standard error of mean (SEM) Group differences are evaluated by one-way ANOVA.
# [3] = tested on: CA1 pyramidal neurons in the dorsal hippocampus; assay: Dendritic spine assessment (Afraxis ESP) after five days ip dosing; type: in vivo, mice; conditions: 0.1 mg/kg per day for five days
# Procedure: Adult C57B16 mice, (8 weeks old) were administered vehicle or test sample, 0.005, 0.03, 0.07, 0.1 or 0.2 mg/kg, ip, per day for five days prior to sacrifice after rapid anesthetization with isofluorane. Brain tissue was sectioned into […] slices from anterior to posterior extremes.
# Ballistic dye labelling was performed, followed by laser-scanning confocal microscopy (Olympus FV1000) using a 63× objective (1.42 NA) to scan individually labelled neurons at high resolution (0.103×0.103×0.33 μm voxels). Target neurons were identified in the brain region of interest by anatomical location and cell morphology. Microscopy was performed blind to experimental conditions. A minimum of 5 samples per animal were measured for each segment.
# Afraxis ESP dendritic spine analysis and assessment of dendritic membrane integrity. Blind deconvolution (AutoQuant) was applied to raw three-dimensional digital images which were then analyzed for spine density and morphology by trained analysts, individual spines were measured manually for (a) head diameter, (b) length, and (c) neck thickness from image Z-stacks using custom-built Afraxis ESP software. Each dendrite was analyzed by 3 independent analysts. […]
# Statistics. […] For all group comparisons of parametric values, statistical significance was determined using the analysis of variance test (ANOVA; SPSS). […]
# [4] = tested on: adrenal chromaffin and human neuroblastoma cells; conditions: comparison cholinesterase inhibitor; cited from earlier work
# [5] = tested on: mild to moderate AD patients; conditions: cited from earlier work
compound,measurement,setting,value
COc1ccc2c3c1O[C@H]1C[C@@H](O)C=C[C@@]31CCN(C)C2 [Galantamine hydrobromide],protective effect on neurite network reduced by Aβ oligomer,[1],significant protective effect
same,Aβ1-42 oligomers in the medium,[2],reduced Aβ1-42 oligomers in the medium significantly
same,spine density in apical dendritic samples,[3],significant increase
Nc1c2c(nc3ccccc13)CCCC2 [tacrine],neuroprotective effect against induced apoptosis,[4],did not occur
Solanezumab: antibody directed at the central portion of Aβ,functional decline as measured by the ADCS-ADL,[5]; Expedition I,not significantly affected
same,reduction of functional decline as measured by the ADCS-ADL,[5]; Expedition II,19%
same,additional cognitive deterioration on the ADAS-cog versus placebo,[5]; patients not receiving cholinesterase inhibitors (no SOC),3.6 points
same,additional cognitive deterioration on the ADAS-cog versus placebo,[5]; patients on memantine only,4.1 points
